In patent US20180111913A1, “SUBSTITUTED BENZOFURAN DERIVATIVES AS NOVEL ANTIMYCOBACTERIAL AGENTS” (priority 2015, published 2018):
≈ marks a conversion by molar mass, not a printed value. Like-named read-outs stand apart in the source and are kept apart here.

How the values were obtained:
Mtb strain mc^27000 = assay: microbe, parasite or virus in culture; type: cell-based, Mycobacterium tuberculosis
[1] = molecular target: Mtb Pks13-TE domain (wild-type) (Mycobacterium tuberculosis, UniProt I6X8D2); assay: biochemical; type: biochemical
[2] = tested on: human dermal fibroblast (HDF) cells; settings: for Survival vs. Control: HDF cell survival relative to DMSO-only control at the first (or only) Non-Toxic Concentration value; for Non-Toxic Concentration: human, 48 h
M tuberculosis = type: in vivo, Mycobacterium tuberculosis in GKO mice
Mtb (Erdman lux strain) = type: in vivo, Mycobacterium tuberculosis in female Balb/C mice
Mtb isolate H37Rv = settings: whole-cell screen; cited from earlier work
[3] = GKO mice, 300 mg/kg, 200 mg/kg from day 4; seizures
[4] = Mycobacterium tuberculosis, Mtb mc^27000, liquid medium, 96-well plates, read-out: MIC
[5] = Mycobacterium tuberculosis, read-out: Pks13 MIC
[6] = Pks13-TE, 20 μM 4-MUH, read-out: IC50
[7] = Pks13 enzyme inhibition, read-out: Pks13 IC50

Chain of Mtb Pks13-TE domain (wild-type) (I6X8D2 1451-1733): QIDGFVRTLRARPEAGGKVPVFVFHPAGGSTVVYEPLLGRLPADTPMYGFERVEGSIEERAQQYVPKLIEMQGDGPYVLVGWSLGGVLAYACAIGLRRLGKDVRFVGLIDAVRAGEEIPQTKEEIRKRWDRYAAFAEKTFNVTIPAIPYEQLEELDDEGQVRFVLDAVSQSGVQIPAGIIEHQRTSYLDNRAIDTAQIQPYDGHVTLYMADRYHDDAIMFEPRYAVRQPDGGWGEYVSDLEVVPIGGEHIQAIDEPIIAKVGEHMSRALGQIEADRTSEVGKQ

Structure (SMILES)	MIC (Mtb strain mc^27000; [4]) [µM]	MIC (Mtb strain mc^27000; [5]) [µM]	IC50 [1, 6] [nM]	IC50 [1, 7] [nM]	Survival vs. Control [2] [%]	Non-Toxic Concentration [2] [µM]	Lung CFU (M tuberculosis; mouse, in vivo)	Lung RLU (M tuberculosis; mouse, in vivo)	Spleen CFU (M tuberculosis; mouse, in vivo)	Spleen RLU (M tuberculosis; mouse, in vivo)	also measured
CNC(=O)c1c(-c2ccc(OC)cc2)oc2ccc(O)c(CN3CCCCC3)c12 [compound 31]	1.1 (≈ 0.434 µg/mL)	1.1 (≈ 0.434 µg/mL)	260	260	111	50	7.33	5.06	5.11	2.59	log CFU reduction in the lungs vs. untreated controls (M tuberculosis; GKO mice, 100 mg/kg oral once daily, 9 days, lungs): 0.84 log CFU; log CFU reduction in the spleen relative to untreated controls (M tuberculosis; GKO mice, 100 mg/kg oral once daily, 9 days, spleen): 1.54 log CFU; Diff of Means, Control vs. treatment, Lung (M tuberculosis; mouse, in vivo): 0.834; Diff of Means, Control vs. treatment, Spleen (M tuberculosis; mouse, in vivo): 2.623; Diff of Means, Inhibitor 31 vs. Inhibitor 32, Lung (M tuberculosis; mouse, in vivo): 0.340; Diff of Means, Inhibitor 31 vs. Inhibitor 32, Spleen (M tuberculosis; mouse, in vivo): 0.522; Diff of Means, Inhibitor 31 vs. Isoniazid, Lung (M tuberculosis; mouse, in vivo): 2.179; Diff of Means, Inhibitor 31 vs. Isoniazid, Spleen (M tuberculosis; mouse, in vivo): 2.101
NNC(=O)c1ccncc1 [isoniazid, reference compound]	–	–	–	–	–	–	5.15	3.51	2.49	1.77	log reduction (CFU) in the spleen (Mtb (Erdman lux strain); Balb/C mice, isoniazid control 25 mg/kg, 4 weeks, spleen): 2.52 log; Diff of Means, Control vs. treatment (Mtb (Erdman lux strain); […], organ not given, values match spleen reductions of b137): 2.523; Lung CFU (Mtb (Erdman lux strain); mouse, in vivo): 4.98; Lung RLU (Mtb (Erdman lux strain); mouse, in vivo): 2.37; Spleen CFU (Mtb (Erdman lux strain); mouse, in vivo): 2.35; Spleen RLU (Mtb (Erdman lux strain); mouse, in vivo): 1.59; log reduction (CFU) in the lungs (Mtb (Erdman lux strain); mouse, in vivo): 1.11 log; Diff of Means, Control vs. treatment, Lung (M tuberculosis; mouse, in vivo): 3.013; Diff of Means, Control vs. treatment, Spleen (M tuberculosis; mouse, in vivo): 3.644; log CFU reduction in the spleen (M tuberculosis; mouse, in vivo): 4.16 log CFU; log CFU reduction relative to untreated control in the lungs (M tuberculosis; mouse, in vivo): 3.02 log CFU; log reduction in RLU (luciferase assay) (M tuberculosis; mouse, in vivo, 25 mg/kg): 1.01 log
CCOC(=O)c1c(-c2ccccc2)oc2ccc(O)c(CN3CCC(C)CC3)c12 [test compound]	–	–	–	–	–	–	–	–	–	–	MIC against Mtb isolate H37Rv (Mtb isolate H37Rv): 2.0 µM (≈ 0.787 µg/mL)
CNC(=O)c1c(-c2ccc(O)cc2)oc2cc(O)cc(CN3CCCCC3)c12 [compound 47]	1 (≈ 0.38 µg/mL)	1 (≈ 0.38 µg/mL)	570	–	98	50	8.39	6.09	6.84	4.45	activity in the lungs or the spleen, in words (M tuberculosis; GKO mice, 300 mg/kg dosing): did not show any activity
CNC(=O)c1c(-c2ccccc2)oc2ccc(O)c(CN3CCCCC3)c12 [compound 17]	–	0.2 (≈ 0.0729 µg/mL)	290	290	103	50	7.21	4.24	3.01	1.85	toxicity observed during dosing [3]: apparent toxicity; MIC (Mtb strain mc^27000; Mtb mc^27000, liquid medium, 96-well plates, listed as compound L, read-out: MIC): 0.2 µM (≈ 0.0729 µg/mL); MIC (Mtb strain mc^27000; Mtb mc^27000, liquid medium, 96-well plates, read-out: MIC): 2 µM (≈ 0.729 µg/mL); MIC (Mtb strain mc^27000; Mycobacterium tuberculosis, […], mean ± s.d. of triplicates, NI: no inhibition, read-out: MIC): 0.2 µM (≈ 0.0729 µg/mL); MIC lower than that of the test compound (Mtb strain mc^27000; relative to test compound): > 10 fold; IC50 ([1]; Mtb Pks13-TE domain, mean ± s.d. of triplicates, read-out: IC50): 290 ± 10 nM; growth inhibition in HDF cells relative to DMSO only control [2]: did not show any growth inhibition; log CFU reduction versus untreated control in the lungs (M tuberculosis; GKO mice, 300 mg/kg then 200 mg/kg from day 4, sacrificed day 8 of dosing, no drug clearance period, lungs): 0.53 log CFU; log CFU reduction versus untreated control in the spleen (M tuberculosis; GKO mice, 300 mg/kg then 200 mg/kg from day 4, sacrificed day 8 of dosing, no drug clearance period, spleen): 3.72 log CFU
CCOC(=O)c1c(-c2ccc(F)cc2)oc2cc(O)cc(CCNC(C)C)c12 [compound 73]	2.5 (≈ 0.964 µg/mL)	2.5 (≈ 0.964 µg/mL)	2100	1500 to 2100	97	12.5	–	–	–	–	–
COC(=O)c1c(-c2ccccc2)oc2cc(O)cc(CNC(C)C)c12 [compound 67]	9 (≈ 3.05 µg/mL)	9 (≈ 3.05 µg/mL)	–	700	97	25	–	–	–	–	–
